Measured values taken from PMC8398714, “Synthesis and Evaluation of Biological Activities of Bis(spiropyrazolone)cyclopropanes: A Potential Application against Leishmaniasis” (Molecules, 2021).
Read-outs that look alike come from different tables or passages of the source.

Legend:
[1] = system: S. cerevisiae (W303 background); test: Fungicidal activity (growth, OD600) on S. cerevisiae; assay type: cell-based, Saccharomyces cerevisiae; conditions: 24 h, OD600, concentrations 2.6 to 3000 µM, NA = no activity; for IC50: Saccharomyces cerevisiae, unit inferred, read-out: Inhibitory activity against S. cerevisiae W303 (IC50); for Inhibitory activity against S. cerevisiae W303 (IC50): unit not given
Description: Next, we determined the IC50 of bis(spiropyrazolone)cyclopropanes on a different eukaryotic model: the classical budding yeast S. cerevisiae. Cells were exposed to the compounds at concentrations ranging from 2.6 to 3000 µM for 24 h. The OD600 was measured to assess cell growth. […] These resistances could be explained by the presence of the fungal cell wall, which could limit the entry of bis(spiropyrazolone)cyclopropanes 4 into the cell. Other mechanisms cannot be ruled out, such as structural differences in molecular targets.
The antimicrobial activities of the synthesized compounds were tested against yeast S. cerevisiae (background W303), as described by Teran et al.. Concentrations ranging from 2468.7 to 2.4 µM were assayed.

[2] = Cytotoxicity, MTT assay on RAW 264.7 macrophages; assay type: cell-based; conditions: mouse
Description: Raw 264.7 (ATCC® TIB-71™) was maintained in Dulbecco’s Modified Eagle Medium (DMEM) (Gibco, Invitrogen, Gibco, Carlsbad, CA, USA) supplemented with 10% fetal bovine serum (FBS) (Eurobio, Les Ulis, France) and 100 IU/mL penicillin + 100 μg/mL streptomycin (Gibco), at 37 °C in a 5% CO2 atmosphere. The medium was renewed once a week. The viability was determined using MTT (Thiazolyl Blue Tetrazolium Bromide) dye assay as described before for leishmanicidal activity assessment, with some variations. Here, 5 × 10^4 cells/well in a final volume of 100 µL were deposited into a 96-well plate, in triplicate. Saponin (2.4 mg/mL) and untreated cells were used as positive control and negative control, respectively. A stock solution was prepared in DMSO and immediately diluted in media to obtain different serial concentrations (100–0.01 µM). After 48 h exposure to the compounds, 10 µL/well of MTT (5 mg/mL MTT in PBS) were added, and the plate was incubated at 37 °C for 2 h in the dark. Cells were pelleted by centrifugation at 4400 rpm for 10 min and the media was removed. Then, 100 µL/well of DMSO were added and the absorbance at 570 nm was recorded; a reference wavelength of 630 nm was used for background subtraction.

[3] = Stability of solutions by spectroscopic measurements; assay type: physicochemical; conditions: DMSO solution; 100 μM in DMSO, room temperature
[4] = MTS cell viability assay on A-549 cells; assay type: cell-based; conditions: Homo sapiens; 48 h, 15-150 µM, mean ± SEM of triplicates
Description: Five tumor human cancer cell lines—cerebral astrocytoma (D-384), grade IV prostatic adenocarcinoma (PC-3), mammary adenocarcinoma (MCF-7), human colon carcinoma (RKO) and lung carcinoma (A-549)—along with one immortalized hamster cell line (CHO K-1) were used. The cells PC-3, MCF-7 and RKO were cultured in RPMI-1640, D-384 on DMEM and CHO K-1 on HAM F-12 medium supplemented with 10% fetal bovine serum (FBS, Invitrogen, Karlsruhe, Germany), 1% antibiotic-antimitotic solution (100 units/mL penicillin G, 100 µg/mL streptomycin, and 0.25 µg/mL amphotericin B, Gibco, Grand Island, NY, USA), and 1% L-glutamine (2 mM, Gibco). The cells were incubated at 37 °C in a 5% CO2 atmosphere. The viable cells were counted using the trypan blue exclusion method in a hemocytometer.
The MTS (5-[3-(carboxymethoxy)phenyl]-3-(4,5-dimethyl-2-thiazolyl)-2-(4-sulfo- phenyl)-2H-tetrazolium inner salt) cell viability assay was used to assess the inhibitory effects of the extracts on the survival of human cancer cell lines. A total of 3–5 × 10^3 cells/well were seeded into 96-well plates and were allowed to adhere for 24 h. […] Each concentration/assay was performed three times. Dimethyl sulfoxide (DMSO) was used as a negative control at a final concentration of 0.1% v/v, and 1 µM Doxorubicin was used as a positive control. The cells were incubated with the treatments for 48 h, after which 20 µL MTS (5 mg/mL, Aqueous One Solution Reagent, Gibco) was added and further incubated for 4 h at 37 °C. The absorbance was measured at 570 nm. The data obtained with cells treated with DMSO were defined to represent 100% viability.

[5] = RAW cells, 48 h, MTT, read-out: Cytotoxicity CC50
[6] = Statistical Analyses S1, unrounded mean of CC50 in RAW cells, unit inferred, read-out: CC50 original values, x.1 (Mean)

Row | Structure (SMILES) | IC50 [1] | CC50 at 48 h [2, 5] | CC50 at 48 h [2, 6] | half-life at 100 µM [3] | IC50 [4] | Inhibitory activity against S. cerevisiae W303 (IC50) [1]
1 | CC1=NN(c2ccccc2)C(=O)[C@@]12C(c1ccccc1)[C@@]21C(=O)N(c2ccccc2)N=C1C (relative stereo) [4b, (5R*,6R*)-4,10-Dimethyl-2,8,11-triphenyl-2,3,8,9-tetraazadispiro[4.0.4.1]undeca-3,9-diene-1,7-dione] | 1.38 ± 0.304 mM | 3.4 ± 1.5 µM | 3.44 µM | ~471 min | – | –
2 | CC1=NN(c2ccccc2)C(=O)[C@@]12C(c1ccccc1[N+](=O)[O-])[C@@]21C(=O)N(c2ccccc2)N=C1C (relative stereo) [4c, (5R*,6R*)-11-(2-Nitrophenyl)-4,10-dimethyl-2,8-diphenyl-2,3,8,9-tetraazadispiro[4.0.4.1]undeca-3,9-diene-1,7-dione] | – | 2.3 ± 0.2 µM | 2.26 µM | – | – | –
3 | CC1=NN(c2ccccc2)C(=O)[C@@]12C(c1cccc([N+](=O)[O-])c1)[C@@]21C(=O)N(c2ccccc2)N=C1C (relative stereo) [4d, (5R*,6R*)-11-(3-Nitrophenyl)-4,10-dimethyl-2,8-diphenyl-2,3,8,9-tetraazadispiro[4.0.4.1]undeca-3,9-diene-1,7-dione] | – | 3.9 ± 1.1 µM | 3.92 µM | – | 94.8 ± 4.54 µM | –
4 | COc1ccc(C2[C@@]3(C(=O)N(c4ccccc4)N=C3C)[C@]23C(=O)N(c2ccccc2)N=C3C)cc1 (relative stereo) [4e, (5R*,6R*)-11-(4-Methoxyphenyl)-4,10-dimethyl-2,8-diphenyl-2,3,8,9-tetraazadispiro[4.0.4.1]undeca-3,9-diene-1,7-dione] | – | 7.3 ± 2 µM | 7.28 µM | – | – | –
5 | COc1ccccc1C1[C@@]2(C(=O)N(c3ccccc3)N=C2C)[C@]12C(=O)N(c1ccccc1)N=C2C (relative stereo) [4f, (5R*,6R*)-11-(2-Methoxyphenyl)-4,10-dimethyl-2,8-diphenyl-2,3,8,9-tetraazadispiro[4.0.4.1]undeca-3,9-diene-1,7-dione] | – | 12.8 ± 1.2 µM | 12.8 µM | – | – | –
6 | CC1=NN(c2ccccc2)C(=O)[C@@]12C(c1ccc([N+](=O)[O-])cc1)[C@@]21C(=O)N(c2ccccc2)N=C1C (relative stereo) [4k, (5R*,6R*)-11-(4-Nitrophenyl)-4,10-dimethyl-2,8-diphenyl-2,3,8,9-tetraazadispiro[4.0.4.1]undeca-3,9-diene-1,7-dione] | – | 3.3 ± 1 µM | 3.31 µM | – | 114 ± 6.37 µM | –
7 | COC(=O)c1ccc(C2[C@@]3(C(=O)N(c4ccccc4)N=C3C)[C@]23C(=O)N(c2ccccc2)N=C3C)cc1 (relative stereo) [4q, (5R*,6R*)-Methyl-4[4,10-dimethyl-2,8-diphenyl-2,3,8,9-tetraazadispiro[4.0.4.1]undeca-3,9-diene-1,7-dione-11-yl]benzoate] | 1.09 ± 0.0385 mM | 4 ± 0.8 µM | 4.01 µM | – | 85.1 ± 10.5 µM | slight measurable effect
8 | CC1=NN(c2ccccc2)C(=O)[C@@]12C(c1ccc(C(F)(F)F)cc1)[C@@]21C(=O)N(c2ccccc2)N=C1C (relative stereo) [4r, (5R*,6R*)-11-(4-Trifluoromethylphenyl)-4,10-dimethyl-2,8-diphenyl-2,3,8,9-tetraazadispiro[4.0.4.1]undeca-3,9-diene-1,7-dione] | 1.27 ± 0.119 mM | 6.5 ± 0.9 µM | 6.48 µM | – | 78.7 ± 7.9 µM | –
9 | CC1=NN(c2ccccc2)C(=O)[C@@]12C(c1ccc(OC(F)(F)F)cc1)[C@@]21C(=O)N(c2ccccc2)N=C1C (relative stereo) [4s, (5R*,6R*)-11-(4-Trifluoromethoxyphenyl)-4,10-dimethyl-2,8-diphenyl-2,3,8,9-tetraazadispiro[4.0.4.1]undeca-3,9-diene-1,7-dione] | 0.789 ± 0.0373 mM | 8.6 ± 3.2 µM | 8.63 µM | – | 78.5 ± 7.08 µM | slight measurable effect
10 | CC1=NN(c2ccccc2)C(=O)[C@@]12C(c1cccc(F)c1)[C@@]21C(=O)N(c2ccccc2)N=C1C (relative stereo) [4t, (5R*,6R*)-11-(3-Fluorophenyl)-4,10-dimethyl-2,8-diphenyl-2,3,8,9-tetraazadispiro[4.0.4.1]undeca-3,9-diene-1,7-dione] | – | 2.7 ± 0.7 µM | 2.75 µM | – | – | –
11 | CSc1ccc(C2[C@]3(C(=O)N(c4ccccc4)N=C3C)[C@@]23C(=O)N(c2ccccc2)N=C3C)cc1 (relative stereo) [4u, (5R*,6R*)-11-(4-Thiomethylphenyl)-4,10-dimethyl-2,8-diphenyl-2,3,8,9-tetraazadispiro[4.0.4.1]undeca-3,9-diene-1,7-dione] | – | 9.3 ± 3.4 µM | 9.3 µM | – | – | –
